Read-outs that look alike come from different tables or passages of the source. Where a SMILES comes first, the peptide text is derived from it. [ ]: non-standard residue; d: D form. The star is where a group is joined. Acca(2-Et,1R,2R) = CC[C@@H]1C[C@]1(N)C(=O)O; CH2(1-naphthyl) = c1ccc2c(C*)cccc2c1; Hyp = O=C(O)[C@@H]1C[C@@H](O)CN1; Chg = N[C@H](C(=O)O)C1CCCCC1; Nva = CCC[C@H](N)C(=O)O; X1 = c1ccc2cc(C*)ccc2c1; Ac3c = NC1(C(=O)O)CC1; Bn = c1ccc(C*)cc1

The target in test [1] is T1, HCV NS3 protease type 1b/NS4A cofactor peptide (Hepatitis C virus genotype 1b, UniProt P26663).
T1 construct: recombinant HCV NS3 protease (amino acid 1027 to 1206) was cloned in the pET11d bacterial expression vector; made in house; host or cells: E. coli BL21(DE3)pLysS
T1 sequence (P26663 1027-1206, other chains not shown): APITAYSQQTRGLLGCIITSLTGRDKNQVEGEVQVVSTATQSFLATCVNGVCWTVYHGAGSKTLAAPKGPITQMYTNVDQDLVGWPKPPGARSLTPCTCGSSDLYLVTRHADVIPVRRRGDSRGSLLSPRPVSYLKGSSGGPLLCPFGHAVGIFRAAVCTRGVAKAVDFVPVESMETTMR
Nature of the test: Recombinant HCV NS3 protease/NS4A cofactor peptide radiometric assay. In kind it is biochemical, HCV genotype 1b.

In the next test the target is T2, human leukocyte elastase (Homo sapiens, UniProt P08246).
T2 sequence (P08246 30-267): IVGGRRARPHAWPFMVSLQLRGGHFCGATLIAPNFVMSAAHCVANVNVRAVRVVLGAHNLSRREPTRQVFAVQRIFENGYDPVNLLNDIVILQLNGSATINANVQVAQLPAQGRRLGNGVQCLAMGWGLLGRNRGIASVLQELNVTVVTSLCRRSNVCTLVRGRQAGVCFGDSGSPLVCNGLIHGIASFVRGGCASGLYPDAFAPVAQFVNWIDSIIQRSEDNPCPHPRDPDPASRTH
Nature of the test: Specificity assay: human leukocyte elastase. The format is biochemical. The protocol: (§1) The final conditions for each assay were as follows:
[100 μM Succ-AAPF-pNA [SEQ. ID NO.
(§2) The percentage of inhibition was calculated using the formula:
(§3) [1-((UVinn-UVblank)/(UVctl-UVblank))]×100

Test [2] concerns the target porcine pancreatic elastase (Sus scrofa, UniProt P00772). Nature of the test: biochemical.
Protocol: (§4) The specificity of the compounds was determined against a variety of serine proteases: human leukocyte elastase, porcine pancreatic elastase and bovine pancreatic α-chymotrypsin and one cysteine protease: human liver cathepsin B. In all cases a 96-well plate format protocol using a colorimetric p-nitroaniline (pNA) substrate specific for each enzyme was used. Each assay included a 1 h enzyme-inhibitor pre-incubation at 30° C. followed by addition of substrate and hydrolysis to ≈30% conversion as measured on a UV Thermomax® microplate reader. Substrate concentrations were kept as low as possible compared to KM to reduce substrate competition. Compound concentrations varied from 300 to 0.06 μM depending on their potency. The final conditions for each assay were as follows:
(§5) 50 mM Tris-HCl pH 8, 0.5 M Na2SO4, 50 mM NaCl, 0.1 mM EDTA, 3% DMSO, 0.01% Tween-20 with;
[100 μM Succ-AAPF-pNA [SEQ. […] 7] and 250 pM α-chymotrypsin], [133 μM Succ-AAA-pNA and 8 nM porcine elastase], [133 μM Succ-AAV-pNA and 8 nM leukocyte elastase]; or
A representative example is summarized below for porcine pancreatic elastase: In a polystyrene flat-bottom 96-well plate were added using a Biomek liquid handler (Beckman):
40 μL of assay buffer (50 mM Tris-HCl pH 8, 50 mM NaCl, 0.1 mM EDTA);
20 μL of enzyme solution (50 mM Tris-HCl pH 8, 50 mM NaCl, 0.1 mM EDTA, 0.02% Tween-20, 40 nM porcine pancreatic elastase); and
20 μL of inhibitor solution (50 mM Tris-HCl, pH 8, 50 mM NaCl, 0.1 mM EDTA, 0.02% Tween-20, 1.5 mM-0.3 μM inhibitor, 15% v/v DMSO).
After 60 min pre-incubation at 30° C., 20 μL of substrate solution (50 mM Tris/HCl, pH 8, 0.5 M Na2SO4, 50 mM NaCl, 0.1 mM EDTA, 665 μM Succ-AAA-pNA) were added to each well and the reaction was further incubated at 30° C. for 60 min after which time the absorbance was read on the UV Thermomax® plate reader. Rows of wells were allocated for controls (no inhibitor) and for blanks (no inhibitor and no enzyme). The sequential 2-fold dilutions of the inhibitor solution were performed on a separate plate by the liquid handler using 50 mM Tris-HCl pH 8, 50 mM NaCl, 0.1 mM EDTA, 0.02% Tween-20, 15% DMSO. All other specificity assays were performed in a similar fashion.
A non-linear curve fit with the Hill model was applied to the inhibition-concentration data, and the 50% effective concentration (IC50) was calculated by the use of SAS software (Statistical Software System; SAS Institute, Inc., Cary, N.C.).
The next test has as its target T3, human liver cathepsin B (Homo sapiens, UniProt P07858).
T3 construct: from tissue; host or cells: human liver
Nature of the test: Specificity assay: human liver cathepsin B. The format is biochemical. How it is done:
as §1
[100 mM NaHPO4 pH 6, 0.1 mM EDTA, 3% DMSO, 1 mM TCEP, 0.01% Tween-20, 30 μM Z-FR-pNA and 5 nM cathepsin B (tile stock enzyme was activated in buffer containing 20 mM TCEP before use)].
as §2, §3

Test [3] addresses bovine pancreatic α-chymotrypsin (Bos taurus, UniProt P00766). In words: biochemical.
Protocol: as §4, §5
After 60 min pre-incubation at 30° C., 20 μL of substrate solution (50 mM Tris/HCl, pH 8, 0.5 M Na2SO4, 50 mM NaCl, 0.1 mM EDTA, 665 μM Succ-AAA-pNA) were added to each well and the reaction was further incubated at 30° C. for 60 min after which time the absorbance was read on the UV Thermomax® plate reader. Rows of wells were allocated for controls (no inhibitor) and for blanks (no inhibitor and no enzyme). […]
The percentage of inhibition was calculated using the formula: […]
A further test addresses NS3 protease (Hepatitis C virus genotype 1b, UniProt P26663). Nature of the test: Inhibition of NS3 protease by N-terminal cleavage product (assay not specified). As to conditions: N-terminal cleavage product of an analog of a natural substrate. The format is biochemical, HCV.
Setting [4] is: IC50, Table 2, unmarked values: NS3 protease/NS4A cofactor peptide radiometric assay.
Where [5] appears, read: Table 2, human leukocyte elastase, read-out: HLE.
[6] abbreviates: Table 2, unmarked values: NS3 protease/NS4A cofactor peptide radiometric assay, read-out: IC50.
Setting [7] is: Table 5, first line of the cell, NS3 protease/NS4A cofactor peptide radiometric assay (Example 38), read-out: IC50.

Chain of porcine pancreatic elastase (P00772 27-266): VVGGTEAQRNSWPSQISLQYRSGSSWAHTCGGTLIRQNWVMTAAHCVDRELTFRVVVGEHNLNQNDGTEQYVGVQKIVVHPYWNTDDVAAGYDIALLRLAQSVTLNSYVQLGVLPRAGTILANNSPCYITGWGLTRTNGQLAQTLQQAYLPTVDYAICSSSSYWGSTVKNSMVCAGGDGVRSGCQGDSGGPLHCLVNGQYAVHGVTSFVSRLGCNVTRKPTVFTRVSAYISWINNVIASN
Chain of NS3 protease (P26663 1027-1208): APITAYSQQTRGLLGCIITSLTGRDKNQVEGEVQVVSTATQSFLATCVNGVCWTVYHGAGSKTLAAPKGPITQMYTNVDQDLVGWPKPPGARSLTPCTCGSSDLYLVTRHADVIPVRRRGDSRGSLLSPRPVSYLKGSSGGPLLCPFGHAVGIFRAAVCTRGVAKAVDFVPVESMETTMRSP

As to `CC(=O)N[C@H](C(=O)N[C@H](C(=O)N1C[C@H](Oc2ccc(Br)cc2)C[C@H]1C(=O)NC1(C(=O)O)CC1)C(C)C)C1CCCCC1` [compound 238], the IC50 was 27 µM in test [1] (setting [4]) and 195 µM at human leukocyte elastase (setting [5]).

For `CCC[C@H](NC(=O)[C@@H]1CCCN1C(=O)[C@@H](NC(=O)[C@@H](NC(=O)[C@H](CC(=O)O)NC(=O)[C@H](CC(=O)O)NC(C)=O)[C@@H](C)CC)C(C)C)C(=O)O` [compound 123], the IC50 in test [1] (Table 1, unmarked values: NS3 protease/NS4A cofactor peptide radiometric assay, read-out: IC50) was 220 µM; against human leukocyte elastase it was over 300 µM; in test [2], over 300 µM.

As for `CCC[C@H](NC(=O)[C@@H]1C[C@@H](OCc2ccccc2)CN1C(=O)[C@@H](NC(=O)[C@@H](NC(=O)[C@@H](CCC(=O)O)NC(=O)[C@H](CC(=O)O)NC(C)=O)[C@@H](C)CC)C(C)C)C(=O)O` [compound 203] (Ac-D[dE]IV[Hyp](Bn)[Nva]-OH; C-terminus assumed), the IC50 in test [1] (setting [4]) was 0.6 µM; on human liver cathepsin B (Table 2, marked **: human liver cathepsin B, read-out: Other (marked **)) it was over 300 µM; on human leukocyte elastase (setting [5]) it was over 300 µM; in test [2], over 300 µM.

Regarding `CCC[C@H](NC(=O)[C@@H]1C[C@@H](OCc2ccc3ccccc3c2)CN1C(=O)[C@@H](NC(=O)[C@@H](NC(=O)[C@@H](CCC(=O)O)NC(=O)[C@H](CC(=O)O)NC(C)=O)C1CCCCC1)C(C)C)C(=O)O` [compound 214] (Ac-D[dE][Chg]V[Hyp](X1)[Nva]-OH), the IC50 is 0.028 µM in test [1] (setting [6]); over 300 µM against human liver cathepsin B; over 300 µM at human leukocyte elastase; over 300 µM in test [2]; over 300 µM in test [3].

Turning to `CC(=O)N[C@H](C(=O)N[C@H](C(=O)N1C[C@H](OCc2cccc3ccccc23)C[C@H]1C(=O)NC1(C(=O)O)CC1)C(C)C)C1CCCCC1` [compound 227] (Ac-[Chg]V[Hyp](CH2(1-naphthyl))[Ac3c]-OH), the IC50 in test [1] (setting [6]) is 3 µM; at human leukocyte elastase, over 600 µM.

As for `CC[C@@H]1C[C@]1(NC(=O)[C@@H]1C[C@@H](OCc2cccc3ccccc23)CN1C(=O)[C@@H](NC(=O)[C@@H](NC(=O)[C@@H](CCC(=O)O)NC(=O)[C@H](CC(=O)O)NC(C)=O)C1CCCCC1)C1CCCCC1)C(=O)O` [compound 509] (Ac-D[dE][Chg][Chg][Hyp](CH2(1-naphthyl))[Acca(2-Et,1R,2R)]-OH), the IC50 was 0.015 µM in test [1] (setting [7]) and over 300 µM on human leukocyte elastase.

On to `CC[C@@H]1C[C@]1(NC(=O)[C@@H]1C[C@@H](OCc2cccc3ccccc23)CN1C(=O)[C@@H](NC(=O)[C@@H](NC(=O)[C@@H](CCC(=O)O)NC(=O)[C@H](CC(=O)O)NC(C)=O)C1CCCCC1)C(C)C)C(=O)O` [compound 518] (Ac-D[dE][Chg]V[Hyp](CH2(1-naphthyl))[Acca(2-Et,1R,2R)]-OH), for which the IC50 in test [1] (setting [7]) was 0.011 µM; against human leukocyte elastase, over 300 µM.

For the compound `CC(=O)N[C@@H](CC(=O)O)C(=O)N[C@H](CCC(=O)O)C(=O)N[C@H](C(=O)N[C@H](C(=O)N1C[C@H](OCc2ccccc2)C[C@H]1C(=O)N[C@@H](CS)C(=O)O)C(C)C)C1CCCCC1` [compound 210] (Ac-D[dE][Chg]V[Hyp](Bn)C-OH), the IC50 was 0.033 µM in test [1] (setting [4]), over 300 µM at human leukocyte elastase (setting [5]), over 300 µM in test [2] and over 300 µM in test [3].

`CC[C@@H]1C[C@]1(NC(=O)[C@@H]1C[C@@H](OCc2cccc3ccccc23)CN1C(=O)[C@@H](NC(=O)[C@@H](NC(C)=O)C1CCCCC1)C(C)C)C(=O)O` [compound 513]: the “fold more potent than the corresponding 1S,2S isomer” value in test [1] (1R,2R isomer (513) versus 1S,2S isomer (514)) is given as 25 fold. Further, the IC50 is 1.66 µM in test [1] (IC50 (μM), Table 5, first line of the cell, NS3 protease/NS4A cofactor peptide radiometric assay (Example 38)); 1.6 µM in test [1] (text b180, values of Table 5, 1R,2R versus 1S,2S isomer at P1, read-out: IC50); over 300 µM against human leukocyte elastase.

On to `CC[C@H](C)[C@H](NC(=O)[C@@H](CCC(=O)O)NC(=O)[C@H](CC(=O)O)NC(C)=O)C(=O)N[C@H](C(=O)N1C[C@H](OCc2ccccc2)C[C@H]1C(=O)NC1(C(=O)O)CC1)C(C)C` [compound 212] (Ac-D[dE]IV[Hyp](Bn)[Ac3c]-OH; C-terminus assumed), for which the results for the IC50 (in test [1] (setting [4]); on human leukocyte elastase (setting [5]); in test [2]) were 0.21 µM, over 300 µM and over 300 µM, respectively.

For Ac-DDIVPC-OH [Ac-D-D-I-V-P-C-OH], the “inhibition of NS3 protease” value at NS3 protease was “inhibitory”.

Consider `CC[C@@H]1C[C@]1(NC(=O)[C@@H]1C[C@@H](OCc2cccc3ccccc23)CN1C(=O)[C@@H](NC(=O)[C@@H](NC(=O)[C@H](NC(=O)[C@H](CC(=O)O)NC(C)=O)C(C)C)C1CCCCC1)C(C)C)C(=O)O` [compound 521] (Ac-D[dV][Chg]V[Hyp](CH2(1-naphthyl))[Acca(2-Et,1R,2R)]-OH), for which the IC50 in test [1] (setting [7]) is 0.024 µM; on human leukocyte elastase, over 300 µM.
